Experiments:
[1] = test system: 451-Lu metastatic melanoma cells; test: MTT cell viability assay, 451-Lu; type: cell-based, human; details: 50 to 400 μM, 72 h; for toxicity / cell growth inhibition: 451-Lu; for IC50: Homo sapiens, 451Lu, MTT, mean ± SD
Description: (§1) Three malignant melanoma cell lines (Me45, 1205-Lu and 451-Lu; obtained from the collection of the Centre of Oncology, Gliwice, Poland), neonatal human dermal fibroblast (NHDF; Lonza, Basel, Switzerland) and human colorectal adenocarcinoma cells (Caco-2; ATCC, Manassas, VA, USA) were used in the studies. The human malignant melanoma (Me45) cell line (derived from a lymph node metastasis of skin melanoma) was established in 1997 at the Radiobiology Department of the Centre of Oncology in Gliwice. 1205-Lu and 451-Lu cell lines were derived from human melanoma metastases to lungs of immunodeficient mice. The cells were cultivated in the medium DMEM-F12 (PAA, Warsaw, Poland) supplemented with 10% (for Me45, 1205-Lu and 451-Lu and NHDF) or 20% (Caco-2) of fetal bovine serum (FBS, Eurx, Gdansk, Poland). In addition, medium for Caco-2 cells contained Non-essential Amino Acid Solution (1×) (Sigma-Aldrich, Poznan, Poland). All cell lines were grown in the presence of 1% of antibiotics (10,000 μg/mL streptomycin and 10,000 units/mL penicillin; Sigma-Aldrich, Poznan, Poland), at 37 °C in humidified atmosphere with 5% CO2 under standard conditions. All experimental procedures were carried out in log-phase of cell growth. During some experiments melanoma cells were irradiated with X-rays at the dose of 2 Gy at the 24th hour of the incubation. Ionizing radiation was applied using a laboratory X-Cell 140 irradiator (Kubtec, Bridgeport, CT, USA).
(§2) Cells (Me45, 1205-Lu, 451-Lu and NHDF) were seeded on 96-well plates (20,000 cells/mL) 24 h before the experiment. One day later, fresh media containing tested compounds were added. The appropriate control, containing ethanol:DMSO (v/v 1:1) in fresh medium, was also prepared. The plates were incubated for a given time (72 h for Me45, 1205-Lu, 451-Lu and NHDF; 2 h for Caco-2) at 37 °C in humidified atmosphere with 5% CO2. After incubation, the medium was removed and cells were washed with physiological saline (PBS; PAA, Warsaw, Poland). In the next step, the cells were incubated with MTT (3-[4,5-dimethylthiazol-2-yl]-2,5-diphenyltetrazolium bromide, Sigma-Aldrich, Poznan, Poland) (solution of 0.5 mg/mL in RPMI 1640 without phenol red) for 2 h. Then, the MTT solution was removed and the formazan crystals were dissolved in the mixture isopropanol:HCl (v/v 1:0.04; both purchased from Sigma-Aldrich, Poznan, Poland). The absorbance of the obtained product was read at 570 nm using a microplate reader (Epoch; BioTek, Winooski, VT, USA). Survival rate was expressed as the percentage of cell survival and calculated from the ratio (A570 of treated cells/A570 of control cells) × 100%. The experiments were repeated three times.

[2] = test system: 1205-Lu metastatic melanoma cells; test: MTT cell viability assay, 1205-Lu; type: cell-based, human; details: 50 to 400 μM, 72 h; for toxicity / cell growth inhibition: 1205-Lu; for IC50: Homo sapiens, 1205Lu, MTT, mean ± SD
Description: as §1, §2

[3] = test system: Me45 metastatic melanoma cells; test: MTT cell viability assay, Me45; type: cell-based, human; details: 72 h; for toxicity / cell growth inhibition: Me45, 50 to 400 μM; for IC50: Homo sapiens, MTT, 50 to 400 μM, mean ± SD
Description: as §1, §2

[4] = test system: normal skin fibroblasts NHDF; test: MTT cell viability assay, NHDF; type: cell-based, human; details: 50 to 400 μM, 72 h; for IC50: Homo sapiens, MTT, mean ± SD
Description: as §1, §2

451-Lu cells [5] = test: Annexin-V/PI apoptosis assay, 451-Lu; type: cell-based, human; details: 100 µM, 72 h
Description: (§3) The studies of cell cycle, apoptosis and intracellular level of ROS were performed using the flow cytometry method. For the apoptosis assay, the cells were harvested and centrifuged (1500 rpm, 3 min). The apoptosis was measured using an Annexin-V apoptosis assay (BioLegend, San Diego, CA, USA). After supernatant removal, the cells were washed with PBS and centrifuged again. The pellets of cells were suspended in 50 μL of cold Annexin-V binding buffer and stained with FITC-labeled Annexin-V for 30 min at 37 °C in the dark. The Annexin-V binding buffer and propidium iodide (PI) solution (100 μg/mL; Sigma-Aldrich, Poznan, Poland) were then added and the samples were stored on ice till they were measured.
(§4) Cytometric analyses were performed immediately using an Aria III flow cytometer (Becton Dickinson, Franklin Lakes, NJ, USA) with FITC configuration (488 nm excitation; emission, LP mirror 503, BP filter 530/30) or with PE configuration (547 nm excitation; emission, 585 nm) and at least 10,000 cells were counted.

1205-Lu cells [6] = test: Annexin-V/PI apoptosis assay, 1205-Lu; type: cell-based, human; details: 100 µM; for induction of apoptosis / fraction of necrotic cells: 72 h; for fraction of cells in the early stage of apoptosis: 48 h of incubation, without irradiation
Description: as §3, §4

Me45 cells [7] = test: Annexin-V/PI apoptosis assay, Me45; type: cell-based, human; details: Me45, 100 µM, 72 h
Description: as §3, §4

451-Lu melanoma cells = test: Intracellular ROS formation (DCFH-DA, flow cytometry), 451-Lu; type: cell-based, human; details: 72 h, DCF fluorescence
Description: (§5) The experiments on ROS content were performed after 72 h of incubation with the given compounds. The cells were harvested and centrifuged (1500 rpm, 3 min), washed with PBS and centrifuged again. The pellet was resuspended in culture medium and a cell-permeable non-fluorescent probe 2′,7′-dichlorofluorescin diacetate (DCFH-DA, Sigma-Aldrich, Poznan, Poland) at a final concentration of 30 µM was added. The samples were incubated in darkness for 30 min at 37 °C, then stored on ice till they were measured. DCFH-DA is hydrolyzed by cellular esterases into its polar form DCFH. Due to the intracellular ROS and other peroxides, DCFH undergoes oxidation and turns into highly fluorescent compond 2′,7′-dichlorofluorescein (DCF).
as §4

Me45 melanoma cells = test: Intracellular ROS formation (DCFH-DA, flow cytometry), Me45; type: cell-based, human; details: Me45, 72 h, DCF fluorescence
Description: as §5, §4

1205-Lu melanoma cells = test: Intracellular ROS formation (DCFH-DA, flow cytometry), 1205-Lu; type: cell-based, human; details: 72 h, DCF fluorescence
Description: as §5, §4

451-Lu cells [8] = test: Cell cycle analysis (PI, flow cytometry), 451-Lu; type: cell-based, human; details: 100 µM, 72 h, vs untreated control
Description: (§6) For cell cycle analysis, harvested cells were centrifuged (1500 rpm, 3 min). After supernatant removal, cells were fixed with a hypotonic buffer, containing PI at 100 µg/mL in PBS, 5 mg/l of citric acid, 1:9 Triton-X solution, 100 µg/mL of RNase in PBS (Sigma-Aldrich, Poznan, Poland). Probes were incubated for 20 min at room temperature in the dark, then stored on ice till they were measured.
as §4

Me45 cells [9] = test: Cell cycle analysis (PI, flow cytometry), Me45; type: cell-based, human; details: Me45, 100 µM, 72 h, vs untreated control
Description: as §6, §4

colon cancer cells = test system: colon cancer cells; design: method as in PMID 30104549; details: cited from earlier work
1205-Lu cells [10] = test: Pro-apoptotic activity in combination with ionizing radiation (2 Gy), 1205-Lu; type: cell-based, human; details: 100 µM, 48 h, X-rays 2 Gy at the 24th hour
Description: In the next step, pilot experiments on the pro-apoptotic activity of phenolic acid-PC conjugates in combination with ionizing radiation (IR) were performed. […] The time of incubation with a given compound was reduced to 48 h. X-rays at the dose of 2 Gy were applied at the 24th hour of incubation.
Three malignant melanoma cell lines (Me45, 1205-Lu and 451-Lu; obtained from the collection of the Centre of Oncology, Gliwice, Poland), neonatal human dermal fibroblast (NHDF; Lonza, Basel, Switzerland) and human colorectal adenocarcinoma cells (Caco-2; ATCC, Manassas, VA, USA) were used in the studies. […]
The studies of cell cycle, apoptosis and intracellular level of ROS were performed using the flow cytometry method. […] The apoptosis was measured using an Annexin-V apoptosis assay (BioLegend, San Diego, CA, USA). […] The Annexin-V binding buffer and propidium iodide (PI) solution (100 μg/mL; Sigma-Aldrich, Poznan, Poland) were then added and the samples were stored on ice till they were measured.
as §4

IC50 [1] [µM]	IC50 [2] [µM]	IC50 [3] [µM]	Compound	induction of apoptosis (451-Lu cells [5])	induction of apoptosis (1205-Lu cells [6])	induction of apoptosis (Me45 cells [7])	IC50 [4] [µM]	cell cycle phase distribution (451-Lu cells [8])	cell cycle phase distribution (Me45 cells [9])	also measured
54.1 ± 6.7	62.2 ± 7.1	131 ± 9.9	CCCCCCCCCCCCCCCC(=O)O[C@H](COC(=O)c1ccc(OC)cc1)COP(=O)([O-])OCC[N+](C)(C)C [8a, 1-anisoyl-2-palmitoyl-sn-glycero-3-phosphocholine]	–	–	–	198 ± 20.8	–	–	pro-apoptotic effect in combination with ionizing radiation (1205-Lu cells [10]): most effective combinations
82.2 ± 14.3	73.2 ± 9.3	126 ± 3.7	CCCCCCCCCCCCCCCC(=O)O[C@H](COC(=O)c1ccc(OC)c(OC)c1)COP(=O)([O-])OCC[N+](C)(C)C [8b, 1-veratroyl-2-palmitoyl-sn-glycero-3-phosphocholine]	–	–	–	150 ± 17.9	–	Increased fraction of Me45 cells in G2/M phase	pro-apoptotic effect in combination with ionizing radiation (1205-Lu cells [10]): most effective combinations

The next lines start with the molecule.

Compound	IC50 [1] [µM]	IC50 [2] [µM]	IC50 [3] [µM]	induction of apoptosis (451-Lu cells [5])	induction of apoptosis (1205-Lu cells [6])	induction of apoptosis (Me45 cells [7])	IC50 [4] [µM]	cell cycle phase distribution (451-Lu cells [8])	cell cycle phase distribution (Me45 cells [9])	also measured
COc1ccc(C(=O)O)cc1 [1a, 4-methoxybenzoic acid, reference compound]	–	–	–	no ability to induce apoptosis	no ability to induce apoptosis	no ability to induce apoptosis	–	–	–	toxicity / cell growth inhibition [1]: non-toxic; toxicity / cell growth inhibition [2]: non-toxic; toxicity / cell growth inhibition [3]: non-toxic; toxicity / cell growth inhibition [4]: non-toxic
COc1ccc(C(=O)O)cc1OC [1b, 3,4-dimethoxybenzoic acid, reference compound]	–	–	–	no ability to induce apoptosis	no ability to induce apoptosis	no ability to induce apoptosis	–	–	–	toxicity / cell growth inhibition [1]: non-toxic; toxicity / cell growth inhibition [2]: non-toxic; toxicity / cell growth inhibition [3]: non-toxic; toxicity / cell growth inhibition [4]: non-toxic
COc1ccc(C(=O)OC[C@H](COP(=O)([O-])OCC[N+](C)(C)C)OC(=O)c2ccc(OC)cc2)cc1 [3a, 1,2-dianisoyl-sn-glycero-3-phosphocholine]	47.5 ± 2.7	82 ± 10.5	111 ± 4.5	significant potency to induce apoptosis	significant potency to induce apoptosis	significant potency to induce apoptosis	238 ± 17.8	increased the fraction of melanoma cells in the sub-G1 phase	–	reactive oxygen species formation (antioxidant activity, words) (451-Lu melanoma cells): strongest antioxidant; reactive oxygen species formation (antioxidant activity, words) (Me45 melanoma cells): strongest antioxidant; reactive oxygen species formation (antioxidant activity, words) (1205-Lu melanoma cells): strongest antioxidant; fraction of necrotic cells (451-Lu cells [5]): significant increase in the fraction of necrotic cells; fraction of cells in the early stage of apoptosis (1205-Lu cells [6]): ~ 17%; fraction of necrotic cells (1205-Lu cells [6]): significant increase in the fraction of necrotic cells
COc1ccc(C(=O)OC[C@H](COP(=O)([O-])OCC[N+](C)(C)C)OC(=O)c2ccc(OC)c(OC)c2)cc1OC [3b, 1,2-diveratroyl-sn-glycero-3-phosphocholine]	48.3 ± 5.5	153 ± 9.5	84.4 ± 14	significant potency to induce apoptosis	significant potency to induce apoptosis	significant potency to induce apoptosis	168 ± 11.3	increased the fraction of melanoma cells in the sub-G1 phase	increased the fraction of Me45 cells in the sub-G1 as well as G2/M phases	reactive oxygen species formation (antioxidant activity, words) (451-Lu melanoma cells): highest ability to reduce ROS formation; reactive oxygen species formation (antioxidant activity, words) (Me45 melanoma cells): highest ability to reduce ROS formation; reactive oxygen species formation (antioxidant activity, words) (1205-Lu melanoma cells): highest ability to reduce ROS formation; fraction of necrotic cells (451-Lu cells [5]): significant increase in the fraction of necrotic cells; fraction of cells in the early stage of apoptosis (1205-Lu cells [6]): ~ 22%; fraction of necrotic cells (1205-Lu cells [6]): significant increase in the fraction of necrotic cells; overcoming of doxorubicin-resistance (colon cancer cells): partially overcome doxorubicin-resistance
CCCCCCCCCCCCCCCC(=O)OC[C@H](COP(=O)([O-])OCC[N+](C)(C)C)OC(=O)c1ccc(OC)cc1 [5a, 1-palmitoyl-2-anisoyl-sn-glycero-3-phosphocholine]	97.7 ± 8	71.3 ± 7.7	122 ± 10	slightly increased	–	slightly increased	249 ± 20.9	–	–	–
CCCCCCCCCCCCCCCC(=O)OC[C@H](COP(=O)([O-])OCC[N+](C)(C)C)OC(=O)c1ccc(OC)c(OC)c1 [5b, 1-palmitoyl-2-veratroyl-sn-glycero-3-phosphocholine]	137 ± 7.7	102 ± 4.1	109 ± 7.6	–	–	significantly higher fractions of Me45 cells in the early and late stages of apoptosis	185 ± 13.7	increased the fraction of melanoma cells in the sub-G1 phase	Increased fraction of Me45 cells in G2/M phase	–
